Measurements published in patent US12018267B2, “Plants having increased tolerance to herbicides” (BASF SE, priority 2015, dated 2024).

Tested on: transgenic Arabidopsis plants with wildtype or mutated cellulose synthase sequences (SEQ ID NO: 1 or 3)
Assay: 48-well plate growth inhibition of transgenic T2 Arabidopsis, relative tolerance rates versus non-transgenic (Table E2-1)
Assay type: in vivo, Arabidopsis thaliana
Conditions: growth inhibition evaluated seven to ten days after seeding
Text: For transformation of Arabidopsis thaliana, wildtype or mutated cellulose synthase sequences encoding for one of the following protein sequences SEQ ID NO: 1 or 3, are cloned with standard cloning techniques as described in Sambrook et al. (Molecular cloning (2001) Cold Spring Harbor Laboratory Press) in a binary vector containing resistance marker gene cassette (AHAS) and mutated cellulose synthase sequence (marked as GOI) in between ubiquitin promoter (PcUbi) and nopaline synthase terminator (NOS) sequence. Binary plasmids are introduced to Agrobacterium tumefaciens for plant transformation. Arabidopsis thaliana are transformed with wildtype or mutated cellulose synthase sequences by floral dip method as described by McElver and Singh (WO 2008/124495). Transgenic Arabidopsis plants are subjected to TaqMan analysis for analysis of the number of integration loci.
Transgenic Arabidopsis thaliana plants (T2) are assayed for improved tolerance to azine herbicides like e. g. 6-cyclopentyl-N4-(2,3,4,5,6-pentafluorophenyl)-1,3,5-triazine-2,4-diamine in 48-well plates. Therefore, T2 seeds are surface sterilized by stirring for 5 min in ethanol+water (70+30 by volume), rinsing one time with ethanol+water (70+30 by volume) and two times with sterile, deionized water. The seeds are resuspended in 0.1% agar dissolved in water (w/v) Four to five seeds per well are plated on solid nutrient medium consisting of half-strength murashige skoog nutrient solution, pH 5.8 (Murashige and Skoog (1962) Physiologia Plantarum 15: 473-497). Compounds are dissolved in dimethylsulfoxid (DMSO) and added to the medium prior solidification (final DMSO concentration 0.1%). Multi well plates are incubated in a growth chamber at 22° C., 75% relative humidity and 110 μmol Phot*m^−2*s^−1 with 14:10 h light:dark photoperiod. Growth inhibition is evaluated seven to ten days after seeding in comparison to wild type plants. Tolerance factors are calculated based on IC50 values of growth inhibition of transformed versus non-transformed Arabidopsis plants.

SMILES: Nc1nc(Nc2c(F)c(F)c(F)c(F)c2F)nc(C2CCCC2)n1 [6-cyclopentyl-N4-(2,3,4,5,6-pentafluorophenyl)-1,3,5-triazine-2,4-diamine]
- Relative tolerance rate of transgenic Arabidopsis plants as compared to non-transgenic (non-transgenic = 1.0) (Construct AtCesA1_G1031R, SEQ ID 1, variant G1031R): 7
- Relative tolerance rate of transgenic Arabidopsis plants as compared to non-transgenic (non-transgenic = 1.0) (Construct AtCesA1_L1011A, SEQ ID 1, variant L1011A): 3
- Relative tolerance rate of transgenic Arabidopsis plants as compared to non-transgenic (non-transgenic = 1.0) (Construct AtCesA1_R292H, SEQ ID 1, variant R292H): 3
- Relative tolerance rate of transgenic Arabidopsis plants as compared to non-transgenic (non-transgenic = 1.0) (Construct AtCesA1_V297M, SEQ ID 1, variant V297M): 1
- Relative tolerance rate of transgenic Arabidopsis plants as compared to non-transgenic (non-transgenic = 1.0) (Construct AtCesA1_wt, SEQ ID 1, no variant): 1
- Relative tolerance rate of transgenic Arabidopsis plants as compared to non-transgenic (non-transgenic = 1.0) (Construct AtCesA3_F1039L, SEQ ID 3, variant F1039L): 3
- Relative tolerance rate of transgenic Arabidopsis plants as compared to non-transgenic (non-transgenic = 1.0) (Construct AtCesA3_wt, SEQ ID 3, no variant): 1
